Data from ChEMBL document CHEMBL4507279, “Data for DCP probe BI-9627” (2021).

How the values were obtained:
[1] = system: Tyrosine-protein kinase ABL1 (Homo sapiens), P00519 [T315I]; settings: Compound concentration 1000.0 nM
[2] = molecular target: Activin receptor type-1 (Homo sapiens) (UniProt Q04771); settings: Compound concentration 1000.0 nM
[3] = molecular target: RAC-beta serine/threonine-protein kinase (Homo sapiens) (UniProt P31751); settings: Compound concentration 1000.0 nM
[4] = system: ALK tyrosine kinase receptor (Homo sapiens), Q9UM73 [C1156Y]; settings: Compound concentration 1000.0 nM
[5] = molecular target: Aurora kinase C (Homo sapiens) (UniProt Q9UQB9); settings: Compound concentration 1000.0 nM
[6] = molecular target: Tyrosine-protein kinase receptor UFO (Homo sapiens) (UniProt P30530); settings: Compound concentration 1000.0 nM
[7] = molecular target: Serine/threonine-protein kinase B-raf (Homo sapiens) (UniProt P15056); settings: Compound concentration 1000.0 nM
[8] = molecular target: Cyclin-dependent kinase 11A (Homo sapiens) (UniProt Q9UQ88); settings: Compound concentration 1000.0 nM
[9] = molecular target: Cyclin-dependent kinase 9 (Homo sapiens) (UniProt P50750); settings: Compound concentration 1000.0 nM
[10] = molecular target: Casein kinase I isoform gamma-1 (Homo sapiens) (UniProt Q9HCP0); settings: Compound concentration 1000.0 nM
Casein kinase I isoform gamma-1 (Homo sapiens), sequence (Q9HCP0 whole entry, looked up, canonical isoform): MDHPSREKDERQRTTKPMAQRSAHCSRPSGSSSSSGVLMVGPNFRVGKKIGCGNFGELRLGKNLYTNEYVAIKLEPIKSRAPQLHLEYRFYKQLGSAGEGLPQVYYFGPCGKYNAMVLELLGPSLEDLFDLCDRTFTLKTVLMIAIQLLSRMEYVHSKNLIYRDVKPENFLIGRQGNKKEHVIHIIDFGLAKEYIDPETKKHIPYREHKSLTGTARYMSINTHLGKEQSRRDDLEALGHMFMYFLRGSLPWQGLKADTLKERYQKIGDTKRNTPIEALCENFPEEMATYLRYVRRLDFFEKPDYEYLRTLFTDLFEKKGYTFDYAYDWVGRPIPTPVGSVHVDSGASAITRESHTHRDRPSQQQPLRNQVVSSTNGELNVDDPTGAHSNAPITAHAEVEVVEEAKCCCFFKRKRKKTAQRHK

[11] = molecular target: Casein kinase I isoform gamma-2 (Homo sapiens) (UniProt P78368); settings: Compound concentration 1000.0 nM
[12] = molecular target: Serine/threonine-protein kinase DCLK1 (Homo sapiens) (UniProt O15075); settings: Compound concentration 1000.0 nM
[13] = molecular target: Serine/threonine-protein kinase 17B (Homo sapiens) (UniProt O94768); settings: Compound concentration 1000.0 nM
[14] = molecular target: Dual specificity tyrosine-phosphorylation-regulated kinase 2 (Homo sapiens) (UniProt Q92630); settings: Compound concentration 1000.0 nM
[15] = system: Epidermal growth factor receptor (Homo sapiens), P00533 [UNDEFINED MUTATION]; settings: Compound concentration 1000.0 nM
[16] = system: Receptor-type tyrosine-protein kinase FLT3 (Homo sapiens), P36888 [UNDEFINED MUTATION]; settings: Compound concentration 1000.0 nM
[17] = molecular target: Receptor-type tyrosine-protein kinase FLT3 (Homo sapiens) (UniProt P36888); settings: Compound concentration 1000.0 nM
[18] = molecular target: Tyrosine-protein kinase Fyn (Homo sapiens) (UniProt P06241); settings: Compound concentration 1000.0 nM
Tyrosine-protein kinase Fyn (Homo sapiens), sequence (P06241 2-537 limits assumed): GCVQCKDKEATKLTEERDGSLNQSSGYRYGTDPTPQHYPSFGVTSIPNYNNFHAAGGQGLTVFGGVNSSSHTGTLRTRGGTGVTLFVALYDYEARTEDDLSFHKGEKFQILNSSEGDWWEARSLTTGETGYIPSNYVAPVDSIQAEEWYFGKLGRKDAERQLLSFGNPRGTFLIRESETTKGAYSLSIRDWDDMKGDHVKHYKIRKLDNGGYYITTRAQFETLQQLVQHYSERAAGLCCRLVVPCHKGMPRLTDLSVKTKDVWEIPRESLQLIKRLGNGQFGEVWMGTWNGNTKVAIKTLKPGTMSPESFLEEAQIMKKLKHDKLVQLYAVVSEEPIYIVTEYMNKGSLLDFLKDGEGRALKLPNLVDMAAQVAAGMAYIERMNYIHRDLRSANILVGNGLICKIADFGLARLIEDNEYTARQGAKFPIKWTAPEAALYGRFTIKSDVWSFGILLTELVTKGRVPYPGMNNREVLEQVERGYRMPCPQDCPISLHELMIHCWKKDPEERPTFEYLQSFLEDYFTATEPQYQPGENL

[19] = molecular target: Tyrosine-protein kinase HCK (Homo sapiens) (UniProt P08631); settings: Compound concentration 1000.0 nM
[20] = molecular target: Serine/threonine-protein kinase ICK (Homo sapiens) (UniProt Q9UPZ9); settings: Compound concentration 1000.0 nM
[21] = molecular target: Inhibitor of nuclear factor kappa-B kinase subunit beta (Homo sapiens) (UniProt O14920); settings: Compound concentration 1000.0 nM
Inhibitor of nuclear factor kappa-B kinase subunit beta (Homo sapiens), sequence (O14920 whole entry): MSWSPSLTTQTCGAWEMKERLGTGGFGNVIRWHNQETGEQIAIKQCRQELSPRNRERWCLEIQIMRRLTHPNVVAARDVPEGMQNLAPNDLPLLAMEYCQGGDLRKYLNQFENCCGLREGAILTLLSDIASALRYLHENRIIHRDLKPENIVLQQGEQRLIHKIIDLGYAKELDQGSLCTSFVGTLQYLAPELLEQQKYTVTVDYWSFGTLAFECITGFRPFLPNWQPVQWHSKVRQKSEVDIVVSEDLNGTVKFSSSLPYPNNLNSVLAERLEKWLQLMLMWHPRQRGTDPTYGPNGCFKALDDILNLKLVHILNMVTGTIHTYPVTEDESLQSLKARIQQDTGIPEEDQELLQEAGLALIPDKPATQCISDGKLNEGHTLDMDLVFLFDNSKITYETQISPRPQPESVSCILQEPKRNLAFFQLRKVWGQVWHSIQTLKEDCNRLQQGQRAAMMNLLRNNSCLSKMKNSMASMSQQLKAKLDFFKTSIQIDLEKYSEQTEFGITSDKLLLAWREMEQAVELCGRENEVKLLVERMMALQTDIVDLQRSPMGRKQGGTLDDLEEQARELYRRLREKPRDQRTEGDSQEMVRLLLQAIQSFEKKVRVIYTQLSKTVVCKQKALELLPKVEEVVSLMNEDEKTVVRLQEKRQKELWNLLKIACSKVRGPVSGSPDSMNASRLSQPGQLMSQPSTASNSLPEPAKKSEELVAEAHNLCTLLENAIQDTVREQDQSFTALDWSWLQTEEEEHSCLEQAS

[22] = system: Mast/stem cell growth factor receptor Kit (Homo sapiens), P10721 [D816V]; settings: Compound concentration 1000.0 nM
[23] = molecular target: Serine/threonine-protein kinase 10 (Homo sapiens) (UniProt O94804); settings: Compound concentration 1000.0 nM
Serine/threonine-protein kinase 10 (Homo sapiens), sequence (O94804 whole entry, looked up): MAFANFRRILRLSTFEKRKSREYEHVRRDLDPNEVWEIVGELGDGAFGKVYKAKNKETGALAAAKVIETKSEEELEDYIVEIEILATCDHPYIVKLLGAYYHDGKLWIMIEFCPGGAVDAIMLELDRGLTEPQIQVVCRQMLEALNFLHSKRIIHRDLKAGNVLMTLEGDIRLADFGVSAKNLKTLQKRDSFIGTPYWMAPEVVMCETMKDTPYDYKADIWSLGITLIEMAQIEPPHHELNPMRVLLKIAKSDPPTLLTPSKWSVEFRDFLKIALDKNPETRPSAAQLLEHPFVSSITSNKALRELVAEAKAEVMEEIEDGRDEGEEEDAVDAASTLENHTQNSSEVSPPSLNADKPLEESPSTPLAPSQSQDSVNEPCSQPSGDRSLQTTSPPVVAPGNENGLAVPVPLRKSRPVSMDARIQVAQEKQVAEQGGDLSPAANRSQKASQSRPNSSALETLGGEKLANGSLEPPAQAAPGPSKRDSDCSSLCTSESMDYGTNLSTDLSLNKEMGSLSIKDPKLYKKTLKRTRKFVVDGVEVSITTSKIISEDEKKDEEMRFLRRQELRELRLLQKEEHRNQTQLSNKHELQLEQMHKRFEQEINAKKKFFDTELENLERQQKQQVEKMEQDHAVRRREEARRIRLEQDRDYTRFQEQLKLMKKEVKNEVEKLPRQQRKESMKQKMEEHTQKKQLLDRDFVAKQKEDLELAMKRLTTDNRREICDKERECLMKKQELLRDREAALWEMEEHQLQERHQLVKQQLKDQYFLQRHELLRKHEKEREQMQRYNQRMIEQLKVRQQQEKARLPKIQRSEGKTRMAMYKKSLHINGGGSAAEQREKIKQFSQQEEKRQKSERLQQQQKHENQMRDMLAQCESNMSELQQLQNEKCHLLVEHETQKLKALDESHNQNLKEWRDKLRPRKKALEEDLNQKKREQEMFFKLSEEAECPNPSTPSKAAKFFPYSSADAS

[24] = molecular target: Mitogen-activated protein kinase kinase kinase 15 (Homo sapiens) (UniProt Q6ZN16); settings: Compound concentration 1000.0 nM
[25] = molecular target: Dual specificity mitogen-activated protein kinase kinase 5 (Homo sapiens) (UniProt Q13163); settings: Compound concentration 1000.0 nM
[26] = molecular target: Dual specificity mitogen-activated protein kinase kinase 7 (Homo sapiens) (UniProt O14733); settings: Compound concentration 1000.0 nM
[27] = molecular target: MAP kinase-interacting serine/threonine-protein kinase 1 (Homo sapiens) (UniProt Q9BUB5); settings: Compound concentration 1000.0 nM
[28] = molecular target: Serine/threonine-protein kinase Nek6 (Homo sapiens) (UniProt Q9HC98); settings: Compound concentration 1000.0 nM
Serine/threonine-protein kinase Nek6 (Homo sapiens), sequence (Q9HC98 whole entry): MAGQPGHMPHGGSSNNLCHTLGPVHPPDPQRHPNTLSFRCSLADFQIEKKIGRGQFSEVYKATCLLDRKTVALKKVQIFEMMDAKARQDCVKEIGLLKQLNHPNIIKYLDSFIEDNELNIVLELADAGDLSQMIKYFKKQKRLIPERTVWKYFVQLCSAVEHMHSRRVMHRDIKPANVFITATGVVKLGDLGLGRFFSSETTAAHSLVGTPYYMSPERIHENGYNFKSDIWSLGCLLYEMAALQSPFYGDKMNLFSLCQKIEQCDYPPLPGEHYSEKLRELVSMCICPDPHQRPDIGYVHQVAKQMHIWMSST

[29] = molecular target: Serine/threonine-protein kinase PAK 5 (Homo sapiens) (UniProt Q9P286); settings: Compound concentration 1000.0 nM
Serine/threonine-protein kinase PAK 5 (Homo sapiens), sequence (Q9P286 whole entry, looked up, the tested form may be a part): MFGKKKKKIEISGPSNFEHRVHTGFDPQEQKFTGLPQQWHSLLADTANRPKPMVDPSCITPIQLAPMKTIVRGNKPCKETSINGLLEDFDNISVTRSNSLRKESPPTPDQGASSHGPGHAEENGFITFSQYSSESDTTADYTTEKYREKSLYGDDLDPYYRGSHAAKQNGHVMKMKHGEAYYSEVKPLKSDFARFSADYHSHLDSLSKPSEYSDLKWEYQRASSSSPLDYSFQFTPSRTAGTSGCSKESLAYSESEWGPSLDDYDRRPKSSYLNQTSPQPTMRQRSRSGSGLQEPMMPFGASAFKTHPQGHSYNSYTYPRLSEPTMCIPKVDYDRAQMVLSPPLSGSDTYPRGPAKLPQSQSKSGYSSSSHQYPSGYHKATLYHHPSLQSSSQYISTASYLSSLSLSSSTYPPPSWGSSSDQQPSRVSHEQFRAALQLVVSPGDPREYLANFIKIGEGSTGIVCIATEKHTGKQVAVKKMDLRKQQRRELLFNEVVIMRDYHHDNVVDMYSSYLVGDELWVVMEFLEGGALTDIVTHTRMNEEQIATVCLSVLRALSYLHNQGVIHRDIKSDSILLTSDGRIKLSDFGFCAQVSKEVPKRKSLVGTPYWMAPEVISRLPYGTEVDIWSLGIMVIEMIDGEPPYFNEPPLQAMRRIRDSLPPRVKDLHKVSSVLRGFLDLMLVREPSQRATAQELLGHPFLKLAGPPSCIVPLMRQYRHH

[30] = molecular target: Phosphatidylinositol 3-kinase C2 domain-containing subunit gamma (Homo sapiens) (UniProt O75747); settings: Compound concentration 1000.0 nM
[31] = system: Phosphatidylinositol 4,5-bisphosphate 3-kinase catalytic subunit alpha isoform (Homo sapiens), P42336 [I800L]; settings: Compound concentration 1000.0 nM
[32] = molecular target: Phosphatidylinositol 4,5-bisphosphate 3-kinase catalytic subunit delta isoform (Homo sapiens) (UniProt O00329); settings: Compound concentration 1000.0 nM
[33] = system: Proto-oncogene tyrosine-protein kinase receptor Ret (Homo sapiens), P07949 [V804M]; settings: Compound concentration 1000.0 nM
[34] = molecular target: Serine/threonine-protein kinase RIO2 (Homo sapiens) (UniProt Q9BVS4); settings: Compound concentration 1000.0 nM
[35] = molecular target: SNF-related serine/threonine-protein kinase (Homo sapiens) (UniProt Q9NRH2); settings: Compound concentration 1000.0 nM
SNF-related serine/threonine-protein kinase (Homo sapiens), sequence (Q9NRH2 whole entry): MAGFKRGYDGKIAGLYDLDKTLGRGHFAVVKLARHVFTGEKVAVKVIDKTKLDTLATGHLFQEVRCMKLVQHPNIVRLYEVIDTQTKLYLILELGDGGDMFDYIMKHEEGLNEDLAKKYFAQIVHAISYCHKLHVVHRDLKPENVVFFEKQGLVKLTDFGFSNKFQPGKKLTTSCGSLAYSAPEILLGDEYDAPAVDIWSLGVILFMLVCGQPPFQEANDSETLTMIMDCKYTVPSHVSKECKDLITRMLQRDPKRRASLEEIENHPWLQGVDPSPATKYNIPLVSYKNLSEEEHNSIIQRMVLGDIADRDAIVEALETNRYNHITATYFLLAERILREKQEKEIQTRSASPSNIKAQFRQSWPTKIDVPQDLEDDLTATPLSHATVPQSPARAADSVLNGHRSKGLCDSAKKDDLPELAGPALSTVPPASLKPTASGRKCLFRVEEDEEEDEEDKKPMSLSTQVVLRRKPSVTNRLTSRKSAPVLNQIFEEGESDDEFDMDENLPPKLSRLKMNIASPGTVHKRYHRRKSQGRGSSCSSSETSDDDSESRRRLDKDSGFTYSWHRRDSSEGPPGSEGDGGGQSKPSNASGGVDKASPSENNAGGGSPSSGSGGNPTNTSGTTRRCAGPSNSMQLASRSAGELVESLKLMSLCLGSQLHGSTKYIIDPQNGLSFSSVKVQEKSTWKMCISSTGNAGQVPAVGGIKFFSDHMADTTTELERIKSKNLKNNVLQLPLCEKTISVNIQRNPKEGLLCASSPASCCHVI

[36] = molecular target: SRSF protein kinase 2 (Homo sapiens) (UniProt P78362); settings: Compound concentration 1000.0 nM
[37] = molecular target: Angiopoietin-1 receptor (Homo sapiens) (UniProt Q02763); settings: Compound concentration 1000.0 nM
[38] = molecular target: Serine/threonine-protein kinase TNNI3K (Homo sapiens) (UniProt Q59H18); settings: Compound concentration 1000.0 nM
[39] = molecular target: NT-3 growth factor receptor (Homo sapiens) (UniProt Q16288); settings: Compound concentration 1000.0 nM
[40] = molecular target: Dual specificity protein kinase TTK (Homo sapiens) (UniProt P33981); settings: Compound concentration 1000.0 nM
[41] = molecular target: Serine/threonine-protein kinase 32B (Homo sapiens) (UniProt Q9NY57); settings: Compound concentration 1000.0 nM
[42] = molecular target: 5-hydroxytryptamine receptor 1D (Homo sapiens) (UniProt P28221); settings: Compound concentration 10.0 uM
[43] = molecular target: 5-hydroxytryptamine receptor 2C (Homo sapiens) (UniProt P28335); settings: Compound concentration 10.0 uM
[44] = molecular target: 5-hydroxytryptamine receptor 7 (Homo sapiens) (UniProt P34969); settings: Compound concentration 10.0 uM
5-hydroxytryptamine receptor 7 (Homo sapiens), sequence (P34969 whole entry): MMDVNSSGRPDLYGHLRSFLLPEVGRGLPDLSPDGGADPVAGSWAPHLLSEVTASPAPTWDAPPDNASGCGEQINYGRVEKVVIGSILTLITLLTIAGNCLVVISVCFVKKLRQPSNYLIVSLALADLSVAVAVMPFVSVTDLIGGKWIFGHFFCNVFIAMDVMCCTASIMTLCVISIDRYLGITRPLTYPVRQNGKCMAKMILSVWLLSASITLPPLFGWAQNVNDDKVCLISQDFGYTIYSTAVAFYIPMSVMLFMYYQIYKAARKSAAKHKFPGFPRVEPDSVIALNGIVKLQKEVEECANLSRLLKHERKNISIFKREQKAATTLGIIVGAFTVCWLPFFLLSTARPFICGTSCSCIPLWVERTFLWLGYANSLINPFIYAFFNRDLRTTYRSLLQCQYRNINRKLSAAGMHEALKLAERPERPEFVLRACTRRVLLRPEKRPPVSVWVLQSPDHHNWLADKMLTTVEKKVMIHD

[45] = molecular target: Alpha-2C adrenergic receptor (Homo sapiens) (UniProt P18825); settings: Compound concentration 10.0 uM

SMILES: CC(=O)N1CCC(c2ccc(C(=O)NC3=NCCN3)cc2C(F)(F)F)CC1 [BI 0054]
- residual activity [1]: 92%
- residual activity [2]: 100%
- residual activity [3]: 91%
- residual activity [4]: 100%
- residual activity [5]: 100%
- residual activity [6]: 100%
- residual activity [7]: 100%
- residual activity [8]: 100%
- residual activity [9]: 84%
- residual activity [10]: 95%
- residual activity [11]: 100%
- residual activity [12]: 89%
- residual activity [13]: 100%
- residual activity [14]: 93%
- residual activity [15]: 100%
- residual activity [16]: 88%
- residual activity [17]: 100%
- residual activity [18]: 76%
- residual activity [19]: 100%
- residual activity [20]: 88%
- residual activity [21]: 85%
- residual activity [22]: 91%
- residual activity [23]: 100%
- residual activity [24]: 93%
- residual activity [25]: 92%
- residual activity [26]: 100%
- residual activity [27]: 100%
- residual activity [28]: 100%
- residual activity [29]: 87%
- residual activity [30]: 85%
- residual activity [31]: 94%
- residual activity [32]: 100%
- residual activity [33]: 100%
- residual activity [34]: 93%
- residual activity [35]: 98%
- residual activity [36]: 100%
- residual activity [37]: 100%
- residual activity [38]: 98%
- residual activity [39]: 100%
- residual activity [40]: 100%
- residual activity [41]: 100%
- inhibition [42]: 9.64%
- inhibition [43]: -2.86%
- inhibition [44]: 3.32%
- inhibition [45]: 16.3%

SMILES: CC(=O)N1CCC(c2ccc(C(=O)NC(=N)N)cc2C(F)(F)F)CC1 [BI 9627]
- residual activity [1]: 95%
- residual activity [2]: 100%
- residual activity [3]: 99%
- residual activity [4]: 100%
- residual activity [5]: 100%
- residual activity [6]: 100%
- residual activity [7]: 100%
- residual activity [8]: 92%
- residual activity [9]: 100%
- residual activity [10]: 100%
- residual activity [11]: 100%
- residual activity [12]: 100%
- residual activity [13]: 100%
- residual activity [14]: 89%
- residual activity [15]: 100%
- residual activity [16]: 80%
- residual activity [17]: 100%
- residual activity [18]: 100%
- residual activity [19]: 100%
- residual activity [20]: 94%
- residual activity [21]: 100%
- residual activity [22]: 100%
- residual activity [23]: 94%
- residual activity [24]: 100%
- residual activity [25]: 86%
- residual activity [26]: 86%
- residual activity [27]: 100%
- residual activity [28]: 100%
- residual activity [29]: 100%
- residual activity [30]: 100%
- residual activity [31]: 90%
- residual activity [32]: 34%
- residual activity [33]: 100%
- residual activity [34]: 100%
- residual activity [35]: 100%
- residual activity [36]: 0%
- residual activity [37]: 96%
- residual activity [38]: 100%
- residual activity [39]: 100%
- residual activity [40]: 100%
- residual activity [41]: 89%
- inhibition [42]: 34%
- inhibition [43]: 2.59%
- inhibition [44]: 16.3%
- inhibition [45]: 9.12%
